Source: patent publication US20250108036A1, “COMPOSITIONS FOR REMOVING SENESCENT CELLS AND USES THEREOF” (LIFECEUTIX CO., LTD., priority 2021, published 2025)

Experiments:
[1] = test system: aging-related inflammation and fibrosis secretory factors (SASP); assay: ProcartaPlex immunoassay of SASP factors in culture medium of senescent foreskin cells (Example 5); type: cell-based, human; conditions: LX-112 3 μM; senescent untreated = 100%
Description: In the same manner as Example 3, natural aging of human foreskin cells was induced and treated with LX-112 at a concentration of 3 μM. Then the expression levels of aging-related inflammation and fibrosis secretory factors (SASP), IL1α, IL1β, IL6, IL10, MCP1, PAI1 VCAM1, MMP1, MMP2, MMP3, MMP12, and TGFβ, were measured using an immunoassay (ProcartaPlex Immunoassay, purchased from Thermo Fisher Scientific) with the obtained culture medium. […] Table 17 calculates the amount of each factor after inducing aging to 100% and compares it with the amount of each factor after treatment with LX-112.

p16, p21 = assay: p16 and p21 mRNA qRT-PCR in doxorubicin-aged mice (Example 8-2); type: in vivo, C57BL6J mice; conditions: doxorubicin-aged mice, LX-112 70 mg/kg oral daily 21 days; DOX without LX = 100%
Description: (§1) After adapting 8-week-old male C57BL6J mice (purchased from KRIBB Laboratory Animal Resource Center) to the experimental environment for 1 week, doxorubicin, an anticancer drug, was administered intraperitoneally at a concentration of 10 mg/kg, and mice that were induced to age for more than 10 days were assigned to an experimental group and a control group. LX-112 was mixed with 0.5% CMC-Na solution (purchased from Sigma) and administered orally at a concentration of 70 mg/kg daily for 21 days. The control group was administered only the solution in the same volume. After drug administration was completed, the method described in each Example below was performed.
The mouse was sacrificed in the same manner as in Example 7-2, RNA was extracted from the organ tissue of each region, and qRT-PCR was performed and analyzed using the synthesized cDNA. […] Table 37 calculates the mRNA amounts of p16 and p21 after aging was induced by treatment with the anticancer drug as 100% and compared them with the mRNA amounts of p16 and p21 after treatment with LX-112.

IL6, activin A = assay: serum IL6 and activin A ELISA in obesity-aged mice (Example 9-3); type: in vivo, C57BL6J mice; conditions: LX-112 70 mg/kg oral daily 21 days
Description: 15-week-old male C57BL6J mice (purchased from Jackson Laboratories), whose obesity was induced by a high-fat diet, were adapted to the experimental environment for one week, and then the mice were randomized into an experimental group and a control group. LX-112 was mixed with 0.5% CMC-Na solution (purchased from Sigma) and administered orally at a concentration of 70 mg/kg daily for 21 days. The control group was administered only the solution in the same volume. After drug administration was completed, the method described in each Example below was performed. Mice were sacrificed and the weight of adipose tissue in each area was measured.
Using the same method as in Example 7-5, the amount of IL6 and activin A, which are aging-related inflammation secretory factors (SASP), were measured in serum collected from mice using an enzyme-linked immunosorbent assay (ELISA Kit, purchased from R&D Systems).

p16 = p16 mRNA qRT-PCR in organ tissues of naturally aged mice (Example 7-2); type: in vivo, C57BL6J mice; conditions: LX-112 70 mg/kg oral daily 21 days, aged untreated = 100%
Description: After 22-month-old female C57BL6J mice (purchased from KRIBB Laboratory Animal Resource Center) were adapted to the experimental environment for one week, the aged mice were randomized into an experimental group and a control group. 8-week-old mice that were not aged were used as controls. LX-112 was mixed with 0.5% CMC-Na solution (purchased from Sigma) and administered orally at a concentration of 70 mg/kg daily for 21 days. The control group was administered only the solution in the same volume. After drug administration was completed, the method described in each Example below was performed.
The mouse was sacrificed, RNA was extracted from the organ tissue of each region, and qRT-PCR was performed using the synthesized cDNA. Specifically, in order to maintain the quality of RNA during the RNA extraction process, the tissue from each collected area was immediately cut into 30 mg to 50 mg pieces, placed in RNA stabilization solution (purchased from Thermo Fisher Scientific), and absorbed into the tissue for 1 day. Afterwards, it was stored at −80° C. until use. The collected tissue was placed together with the lysate in a tube containing beads for tissue homogenization (purchased from MP Bio) and homogenized using tissue homogenization equipment (purchased from MP Bio). Total RNA was extracted from the homogenized tissues. The extraction method used an RNA extraction kit (PureLink RNA Mini Kit, purchased from Thermo Fisher Scientific) for soft tissues including liver, kidney, lung, and brain, or TRIzol Reagent (purchased from Thermo Fisher Scientific) for hard tissues including muscle, skin, fat, etc. The concentration of extracted total RNA was quantified using Nanodrop (purchased from Micro Digital) or SpectraMax iD3 Multi-Mode Microplate Reader (purchased from Molecular Device). Genomic DNA was removed from the extracted total RNA using a cDNA synthesis kit (purchased from Thermo Fisher Scientific), and cDNA was prepared. Using the synthesized cDNA, qRT-PCR was performed for each gene using the housekeeping gene β-actin as a standard, using Taqman Fast Abvanced Master Mix (purchased from Applied Biosystems), SFCgreen I qPCR Master Mix (purchased from SFC Probe), or AmfiSure qGreen qPCR Master Mix (purchased from GenDEPOT), and analyzed using the CFX Connect Real-Time PCR Detection System (purchased from Bio Rad). […] Table 22 calculates the amount of p16 mRNA after senescence was induced as 100% and compared it with the amount of p16 mRNA after treatment with LX-112. The primers used were synthesized through bionics, except that TaqMan primers (purchased from Thermo Fisher Scientific) were used for p16 and IL6.

lipofuscin = lipofuscin staining of muscle of doxorubicin-aged mice (Example 8-4); type: in vivo, C57BL6J mice; conditions: stained area; doxorubicin-aged mice, LX-112 70 mg/kg oral daily 21 days
Description: as §1
Mice were sacrificed in the same manner as in Example 7-4, and tissue sections were prepared from muscle tissue. Lipofuscin, an aging-related degenerative marker was stained.

**Q.** With O=c1c2ccccc2[se]n1CCn1[se]c2ccccc2c1=O [LX-112, 1,2-[bis(1,2-benzisoselenazolone-3(2H)-ketone)]ethane] as the compound, how does the “Protein (%) IL1α” value [1] read?
**A.** 57 (±5) %

**Q.** And the “Protein (%) IL1β” value [1]?
**A.** 46 (±6) %

**Q.** And the “Protein (%) IL6” value [1]?
**A.** 41 (±4) %

**Q.** What about the “Protein (%) IL10” value [1] of the same compound?
**A.** 57 (±7) %

**Q.** And the “Protein (%) MCP1” value [1]?
**A.** 38 (±8) %

**Q.** And the “Protein (%) MMP1” value [1]?
**A.** 43 (±3) %

**Q.** And the “Protein (%) MMP2” value [1]?
**A.** 39 (±9) %

**Q.** And the “Protein (%) MMP3” value [1]?
**A.** 38 (±8) %

**Q.** And the “Protein (%) MMP12” value [1]?
**A.** 41 (±6) %

**Q.** What about the “Protein (%) PAI1” value [1] of the same compound?
**A.** 41 (±4) %

**Q.** And the “Protein (%) TGFβ” value [1]?
**A.** 49 (±9) %

**Q.** And the “Protein (%) VCAM1” value [1]?
**A.** 45 (±5) %

**Q.** And the “p16 mRNA (%) Kidney” value (p16, p21)?
**A.** 75 (±14.81) %

**Q.** And the “p16 mRNA (%) Liver” value (p16, p21)?
**A.** 70 (±8.3) %

**Q.** And the “p16 mRNA (%) eWAT” value (p16, p21)?
**A.** 72 (±18.75) %

**Q.** And the “p21 mRNA (%) Kidney” value (p16, p21)?
**A.** 83.8 (±9.5)^ %

**Q.** What about the “p21 mRNA (%) Liver” value (p16, p21) of the same compound?
**A.** 78 (±11.5) %

**Q.** And the “p21 mRNA (%) eWAT” value (p16, p21)?
**A.** 68.4 (±15.1)^ %

**Q.** What about the “Activin A (%)” value (IL6, activin A) of the same compound?
**A.** 64.5 (±12.3) %

**Q.** And the “IL6 (%)” value (IL6, activin A)?
**A.** 51.8 (±14.2) %

**Q.** What about the “p16 mRNA (%) Brain” value (p16) of the same compound?
**A.** 89 (±5) %

**Q.** What about the “p16 mRNA (%) Kidney” value (p16) of the same compound?
**A.** 52 (±7.9) %

**Q.** And the “p16 mRNA (%) Liver” value (p16)?
**A.** 62 (±3.5) %

**Q.** What about the “p16 mRNA (%) Lung” value (p16) of the same compound?
**A.** 69 (±1) %

**Q.** And the “p16 mRNA (%) Muscle” value (p16)?
**A.** 76 (±3.1) %

**Q.** And the “p16 mRNA (%) Skin” value (p16)?
**A.** 74 (±6.7) %

**Q.** What about the “p16 mRNA (%) eWAT” value (p16) of the same compound?
**A.** 79 (±2) %

**Q.** And the “Lipofuscin (%) Muscle” value (lipofuscin)?
**A.** 77.1 (±8) %
